Measurements from patent US20120093951A1 (priority 2009, published 2012).
Like-named read-outs stand apart in the source and are kept apart here.

Assays:
[1] = tested on: H1N1 subtype serum swine influenza virus; type: in vivo, yellow chickens; details: 10 mg/day injected once per day for 7 days
[2] = tested on: H1N1 serum subtype of swine influenza virus (SIV); type: in vivo, yellow chickens; details: 10 mg/day once per day for 11 days
[3] = tested on: swine influenza virus A/California/4/2009 and A/Hong Kong/xx/2008; type: cell-based, MDCK cells (Madin-Darby Canine Kidney Cells)

Row | Structure (SMILES) | Death Rate ([1]; 30 infected chickens) [%^] | Effective Rate ([1]; 30 infected chickens) [%] | Number of Death ([1]; of 30 infected chickens) | Death Rate ([2]; 40 infected chickens) [%^] | Effective Rate ([2]; 40 infected chickens) [%] | Number of Death ([2]; of 40 infected chickens) | Number of Detectable viruses/Total Number ([3]; Day 2, Tamiflu 10 μmol/ml) | Number of Detectable viruses/Total Number ([3]; Day 2, Tamiflu 100 μmol/ml) | Number of Detectable viruses/Total Number ([3]; Day 3, Tamiflu 10 μmol/ml) | Number of Detectable viruses/Total Number ([3]; Day 3, Tamiflu 100 μmol/ml)
1 | CC(N)C12CC3CC(CC(C3)C1)C2 (stereo not shown) [Group C, rimantadine] | 63.3 | 36.6 | 19 | 62.5 | 37.5 | 25 | – | – | – | –
2 | CCOC(=O)C1=C[C@@H](OC(CC)CC)[C@H](NC(C)=O)[C@@H](N)C1 [Tamiflu, Oseltamivir phosphate] | – | – | – | – | – | – | 1/2 | 0/2 | 2/2 | 2/2
